Experimental data taken from patent US12661410B2, “Compounds for targeted degradation of RET” (C4 Therapeutics, Inc., priority 2020, dated 2026).
Where a chain is given by its changes, count along the chain named. Read-outs that look alike come from different tables or passages of the source.

Experiments:
RET (658-1114) = molecular target: T1, RET (658-1114) (Homo sapiens, UniProt P07949); assay: HiBiT-Degradation, RET wild-type degradation assay (Nano-Glo HiBiT Lytic), 293T.144 cells; assay type: cell-based; settings: for Emax / DC50: 6.0 hours
T1 construct: 658-1114; expressed in transfected cells; host or cells: 293T.144 (293T cells, generated in-house)
T1 sequence (P07949 658-1114): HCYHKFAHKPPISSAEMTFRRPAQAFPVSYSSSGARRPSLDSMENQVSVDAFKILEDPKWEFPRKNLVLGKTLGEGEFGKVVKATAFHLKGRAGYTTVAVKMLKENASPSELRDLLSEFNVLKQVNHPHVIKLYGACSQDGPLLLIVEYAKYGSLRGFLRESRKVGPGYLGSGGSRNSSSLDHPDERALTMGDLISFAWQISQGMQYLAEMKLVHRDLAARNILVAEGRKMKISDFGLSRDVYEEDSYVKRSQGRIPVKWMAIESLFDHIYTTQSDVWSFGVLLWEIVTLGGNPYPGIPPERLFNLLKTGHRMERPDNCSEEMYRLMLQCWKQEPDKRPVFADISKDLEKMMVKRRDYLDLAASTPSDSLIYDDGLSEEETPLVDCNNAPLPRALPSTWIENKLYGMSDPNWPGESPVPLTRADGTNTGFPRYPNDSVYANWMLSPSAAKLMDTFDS
Summary of the method: (§1)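 Degradation quantified by HiBiT lytic luminescence in 293T cells expressing tagged WT or G810R RET kinase domain after 6 h dosing up to 10 μM; DC50 and Emax fitted.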

RET(KD: 658-1114 G810R) = molecular target: T2, RET(KD: 658-1114 G810R) (Homo sapiens, UniProt P07949, G810R); assay: HiBiT-Degradation, RET G810R degradation assay (Nano-Glo HiBiT Lytic), 293T.165 cells; assay type: cell-based; settings: for Emax / DC50: 6.0 hours
T2 construct: 658-1114; expressed in transfected cells; host or cells: 293T.165 (293T cells, generated in-house)
T2 sequence (P07949 658-1114 G810R): T1 sequence (P07949 658-1114) with G153R
Summary of the method: as §1

[1] = % remaining protein, read-out: 293T.144 RET (658-1114) 6.0 hours (Emax)
[2] = half-maximal degradation concentration, read-out: 293T.144 RET (658-1114) 6.0 hours (DC50)
[3] = % remaining protein, read-out: 293T.165 RET(KD: 658-1114 G810R) 6.0 hours (Emax)
[4] = half-maximal degradation concentration, read-out: 293T.165 RET(KD: 658-1114 G810R) 6.0 hours (DC50)
[5] = HiBiT-Degradation, read-out: 293T.144 RET (658-1114) 6.0 hours (DC50)
[6] = HiBiT-Degradation, read-out: 293T.144 RET (658-1114) 6.0 hours (Emax)
[7] = HiBiT-Degradation, read-out: 293T.165 RET(KD: 658-1114 G810R) 6.0 hours (DC50)
[8] = RET wild-type, read-out: HiBiT-Degradation 293T.144 RET (658-1114) 6.0 hours (DC50)
[9] = RET wild-type, read-out: HiBiT-Degradation 293T.144 RET (658-1114) 6.0 hours (Emax)
[10] = RET G810R, read-out: HiBiT-Degradation 293T.165 RET(KD: 658-1114 G810R) 6.0 hours (Emax)

Row | 293T.144 RET (658-1114) 6.0 hours (IP) [nM] (RET (658-1114)) | Emax (RET (658-1114); [1]) [%] | DC50 (RET (658-1114); [2]) [nM] | 293T.165 RET(KD: 658-1114 G810R) 6.0 hours (IP) [nM] (RET(KD: 658-1114 G810R)) | Emax (RET(KD: 658-1114 G810R); [3]) [%] | DC50 (RET(KD: 658-1114 G810R); [4]) [nM] | 293T.144 RET (658-1114) 6.0 hours (IP) [nM] (RET (658-1114); HiBiT-Degradation) | DC50 (RET (658-1114); [5]) [nM] | Emax (RET (658-1114); [6]) [%] | 293T.165 RET(KD: 658-1114 G810R) 6.0 hours (Emax) (RET(KD: 658-1114 G810R); HiBiT-Degradation) | 293T.165 RET(KD: 658-1114 G810R) 6.0 hours (IP) [nM] (RET(KD: 658-1114 G810R); HiBiT-Degradation) | DC50 (RET(KD: 658-1114 G810R); [7]) [nM] | HiBiT-Degradation 293T.144 RET (658-1114) 6.0 hours (IP) [nM] (RET (658-1114); RET wild-type) | DC50 (RET (658-1114); [8]) [nM] | Emax (RET (658-1114); [9]) [%] | HiBiT-Degradation 293T.165 RET(KD: 658-1114 G810R) 6.0 hours (IP) [nM] (RET(KD: 658-1114 G810R); RET G810R) | DC50 (RET(KD: 658-1114 G810R); RET G810R, read-out: HiBiT-Degradation 293T.165 RET(KD: 658-1114 G810R) 6.0 hours (DC50)) [nM] | Emax (RET(KD: 658-1114 G810R); [10]) [%] | SMILES
1 | ++++ (<50 nM = ++++) | < 30 | < 50 | ++++ (<50 nM = ++++) | < 50 | < 100 |  |  |  |  |  |  |  |  |  |  |  |  | CCC1(C(=O)NC(C)C)CCN(c2ccc(-c3nc(-c4ccc(C5CCN(C(=O)CN6CC(c7ccc(NC8CCC(=O)NC8=O)cc7F)C6)CC5)cc4)cn4ncc(C#N)c34)cn2)CC1 (stereo not drawn) [Compound 174, 1-[5-[3-cyano-6-[4-[1-[2-[3-[4-[(2,6-dioxo-3-piperidyl)amino]-2-fluoro-phenyl]azetidin-1-yl]acetyl]-4-piperidyl]phenyl]pyrazolo[1,5-a]pyrazin-4-yl]-2-pyridyl]-4-ethyl-N-isopropyl-piperidine-4-carboxamide]
2 | ++++ (<50 nM = ++++) | < 30 | < 50 | ++++ (<50 nM = ++++) | < 30 | < 50 |  |  |  |  |  |  |  |  |  |  |  |  | CCC1(C(=O)NC2CCC2)CCN(c2ccc(-c3nc(-c4cnn([C@H]5CC[C@H](N6CCC(c7ccc(N[C@@H]8CCC(=O)NC8=O)cc7Cl)CC6)CC5)c4)cn4ncc(C#N)c34)cn2)CC1 (single isomer, unassigned) [Compound 131]
3 |  |  |  |  | < 30 | < 100 | ++++ (< 50 nM = ++++) | < 50 | < 30 | ++++ (< 30% = ++++) | ++++ (< 50 nM = ++++) | < 100 |  |  |  |  |  |  | N#Cc1cnn2cc(-c3ccc(N4CCN(C(=O)CN5CCC(c6ccc(NC7CCC(=O)NC7=O)cc6)CC5)CC4)cc3)cc(-c3ccc(N4CCN(CCc5ccccn5)CC4)nc3)c12 (stereo not drawn) [Compound 18, 6-(4-(4-(2-(4-(4-((2,6-Dioxopiperidin-3-yl)amino)phenyl)piperidin-1-yl)acetyl)piperazin-1-yl)phenyl)-4-(6-(4-(2-(pyridin-2-yl)ethyl)piperazin-1-yl)pyridin-3-yl)pyrazolo[1,5-a]pyridine-3-carbonitrile]
4 | ++++ (<50 nM = ++++) | < 30 | < 50 | ++++ (<50 nM = ++++) | < 30 | < 50 |  |  |  |  |  |  |  |  |  |  |  |  | CCC1(C(=O)NC2CCC2)CCN(c2ccc(-c3nc(-c4cnn([C@H]5C[C@](F)(CN6CCN(c7ccc(N[C@@H]8CCC(=O)NC8=O)cc7F)CC6)C5)c4)cn4ncc(C#N)c34)cn2)CC1 [Compound 187, 1-[5-[3-cyano-6-[1-[3-[[4-[4-[[(3R)-2,6-dioxo-3-piperidyl]amino]-2-fluoro-phenyl]piperazin-1-yl]methyl]-3-fluoro-cyclobutyl]pyrazol-4-yl]pyrazolo[1,5-a]pyrazin-4-yl]-2-pyridyl]-N-cyclobutyl-4-ethyl-piperidine-4-carboxamide]
5 | ++++ (<50 nM = ++++) | < 30 | < 50 | ++++ (<50 nM = ++++) | < 30 | < 100 |  |  |  |  |  |  |  |  |  |  |  |  | CCC1(C(=O)NC2CCC2)CCN(c2ccc(-c3nc(-c4cnn([C@H]5CC[C@H](CN6CCN(c7ccc(N[C@@H]8CCC(=O)NC8=O)cc7F)CC6)CC5)c4)cn4ncc(C#N)c34)cn2)CC1 [Compound 190, 1-[5-[3-cyano-6-[1-[4-[[4-[4-[[(3R)-2,6-dioxo-3-piperidyl]amino]-2-fluoro-phenyl]piperazin-1-yl]methyl]cyclohexyl]pyrazol-4-yl]pyrazolo[1,5-a]pyrazin-4-yl]-2-pyridyl]-N-cyclobutyl-4-ethyl-piperidine-4-carboxamide]
6 | ++++ (<50 nM = ++++) | < 30 | < 50 | ++++ (<50 nM = ++++) | < 30 | < 50 |  |  |  |  |  |  |  |  |  |  |  |  | N#Cc1cnn2cc(-c3cnn([C@H]4CC[C@@H](N5CCN(c6c(F)cc(NC7CCC(=O)NC7=O)cc6F)CC5)CC4)c3)cc(-c3ccc(N4CCC5(CC4)OCc4cccnc45)nc3)c12 (single isomer, unassigned) [Compound 202, 4-(6-(5H-spiro[furo[3,4-b]pyridine-7,4′-piperidin]-1′-yl)pyridin-3-yl)-6-(1-((1s, 4s)-4-(4-(4-((2,6-dioxopiperidin-3-yl)amino)-2,6-difluorophenyl)piperazin-1-yl)cyclohexyl)-1H-pyrazol-4-yl)pyrazolo[1,5-a]pyridine-3-carbonitrile]
7 |  |  |  |  | < 30 | < 50 | ++++ (< 50 nM = ++++) | < 50 | < 30 | ++++ (< 30% = ++++) | ++++ (< 50 nM = ++++) | < 50 |  |  |  |  |  |  | CC(C)NC(=O)C1(C)CCN(c2ccc(-c3cc(-c4cnn([C@H]5CC[C@H](CCN6CCC(c7ccc(NC8CCC(=O)NC8=O)cc7F)CC6)CC5)c4)cn4ncc(C#N)c34)cn2)CC1 (stereo partly drawn) [Compound 34, 1-(5-(3-Cyano-6-(1-((1r,4r)-4-(2-(4-(4-((2,6-dioxopiperidin-3-yl)amino)-2-fluorophenyl)piperidin-1-yl)ethyl)cyclohexyl)-1H-pyrazol-4-yl)pyrazolo[1,5-a]pyridin-4-yl)pyridin-2-yl)-N-isopropyl-4-methylpiperidine-4-carboxamide]
8 |  |  |  |  | < 30 | < 100 |  |  |  |  |  |  | ++++ (< 50 nM = ++++) | < 50 | < 30 | +++ (<100 nM = +++) | < 100 | < 30 | N#Cc1cnn2cc(-c3cnn(C4CC5(C4)CN(C(=O)CN4CCC(c6ccc(NC7CCC(=O)NC7=O)cc6F)CC4)C5)c3)cc(-c3ccc(N4CCN(Cc5ccccn5)CC4)nc3)c12 (stereo not drawn) [Compound 76, 6-[1-[2-[2-[4-[4-[(2,6-dioxo-3-piperidyl)amino]-2-fluoro-phenyl]-1-piperidyl]acetyl]-2-azaspiro[3.3]heptan-6-yl]pyrazol-4-yl]-4-[6-[4-(2-pyridylmethyl)piperazin-1-yl]-3-pyridyl]pyrazolo[1,5-a]pyridine-3-carbonitrile]
9 | ++++ (<50 nM = ++++) | < 30 | < 50 | ++++ (<50 nM = ++++) | < 30 | < 50 |  |  |  |  |  |  |  |  |  |  |  |  | N#Cc1cnn2cc(-c3cnn([C@H]4CC[C@H](N5CCC(c6ccc(N[C@H]7CCC(=O)NC7=O)cc6F)CC5)CC4)c3)nc(-c3ccc(N4CCC5(CC4)OCc4cccnc45)nc3)c12 (single isomer, unassigned) [Compound 179]
10 |  |  |  |  | < 30 |  |  |  |  |  |  |  | ++++ (< 50 nM = ++++) | < 50 | < 30 | ++++ (< 50 nM = ++++) |  | < 30 | CCC1(C(=O)NC(C)C)CCN(c2ccc(-c3cc(-c4cnn([C@H]5CC[C@H](N6CCC(c7ccc(NC8CCC(=O)NC8=O)cc7F)CC6)CC5)c4)cn4ncc(C#N)c34)cn2)CC1 (single isomer, unassigned) [Compound 87, 1-(5-(3-cyano-6-(1-((1r, 4r)-4-(4-(4-((2,6-dioxopiperidin-3-yl)amino)-2-fluorophenyl)piperidin-1-yl)cyclohexyl)-1H-pyrazol-4-yl)pyrazolo[1,5-a]pyridin-4-yl)pyridin-2-yl)-4-ethyl-N-isopropylpiperidine-4-carboxamide]
